According to ChEMBL document CHEMBL5620348, “3-Hydroxy-pyridin-4(1H)-ones as siderophores mediated delivery of isobavachalcone enhances antibacterial activity against pathogenic Pseudomonas aeruginosa” (Eur J Med Chem, 2023):
Calls of active or inactive are those of the source. The rule behind the calls is not given here.

Key:
[1] = test system: Vero; test: Cytotoxicity against green monkey Vero cells assessed as reduction in cell viability at > 32 ug/ml incubated for 24 hrs by MTT assay; type: toxicity, cell-based; settings: chlorocebus sabaeus, dose > 32 µg/ml
[2] = test system: Cell membrane; test: Disruption of cell membrane integrity in Pseudomonas aeruginosa PAO1 assessed as increase in red fluorescence incubated for 5.5 hrs by propidium iodide staining based confocal laser-scanning microscopic analysis; type: cell membranes
[3] = test system: Pseudomonas aeruginosa; test: Antibacterial activity against Pseudomonas aeruginosa ATCC27853 assessed as inhibition of bacterial growth by measuring minimum inhibitory concentration incubated for 18 to 20 hrs in presence of M9 medium by broth microdilution assay; type: functional; settings: time 18-20 hrs
[4] = test system: Klebsiella pneumoniae; test: Antibacterial activity against Klebsiella pneumoniae ATCC 700603 assessed as inhibition of bacterial growth by measuring minimum inhibitory concentration incubated for 18 to 20 hrs in presence of M9 medium by broth microdilution assay; type: functional; settings: time 18-20 hrs
[5] = test system: Pseudomonas aeruginosa; test: Antibacterial activity against Pseudomonas aeruginosa PAO1 assessed as inhibition of bacterial growth by measuring minimum inhibitory concentration incubated for 18 to 20 hrs in presence of M9 medium by broth microdilution assay; type: functional; settings: time 18-20 hrs
[6] = test system: Pseudomonas aeruginosa; test: Antibacterial activity against Pseudomonas aeruginosa PAO1 infected in Caenorhabditis elegans assessed as increase in worm survival rate at 2 times MIC incubated for 60 hrs relative to control; type: functional
[7] = test system: Pseudomonas aeruginosa; test: Antibacterial activity against Pseudomonas aeruginosa PAO1 infected in Caenorhabditis elegans assessed as increase in worm survival rate at 0.5 times MIC incubated for 60 hrs; type: functional, organism-based
[8] = test system: Pseudomonas aeruginosa; test: Antibacterial activity against multi-drug resistant Pseudomonas aeruginosa clinical isolate 1167 assessed as inhibition of bacterial growth by measuring minimum inhibitory concentration incubated for 18 to 20 hrs in presence of M9 medium by broth microdilution assay; type: functional; settings: time 18-20 hrs
[9] = test system: Pseudomonas aeruginosa; test: Antibacterial activity against Pseudomonas aeruginosa PAO1 assessed as inhibition of bacterial growth by measuring minimum inhibitory concentration incubated for 18 to 20 hrs in presence of MH medium by broth microdilution assay; type: functional; settings: time 18-20 hrs
[10] = test system: Pseudomonas aeruginosa; test: Antibacterial activity against multi-drug resistant Pseudomonas aeruginosa clinical isolate FB assessed as inhibition of bacterial growth by measuring minimum inhibitory concentration incubated for 18 to 20 hrs in presence of M9 medium by broth microdilution assay; type: functional; settings: time 18-20 hrs
[11] = test system: Pseudomonas aeruginosa; test: Antibacterial activity against Pseudomonas aeruginosa PAO1 assessed as inhibition of bacterial growth incubated for 18 to 20 hrs in presence of MH medium by broth microdilution assay; type: functional, organism-based
[12] = test system: Pseudomonas aeruginosa; test: Antibacterial activity against Pseudomonas aeruginosa PAO1 assessed as inhibition of bacterial growth at 1 to 4 times MIC incubated upto 24 hrs by time-kill based microplate reader assay; type: functional, organism-based
[13] = test system: Staphylococcus aureus; test: Antibacterial activity against Staphylococcus aureus ATCC 25923 assessed as inhibition of bacterial growth by measuring minimum inhibitory concentration incubated for 18 to 20 hrs in presence of M9 medium by broth microdilution assay; type: functional; settings: time 18-20 hrs
[14] = test system: Staphylococcus aureus; test: Bactericidal activity against Staphylococcus aureus ATCC 25923 assessed as inhibition of bacterial growth at 1 to 2 times MIC incubated upto 24 hrs by time-kill based microplate reader assay; type: functional, organism-based
[15] = test system: Pseudomonas aeruginosa; test: Antibacterial activity against Pseudomonas aeruginosa PAO1 assessed as inhibition of bacterial growth at 2 times MIC incubated upto 24 hrs in presence of Fe(III) by time-kill based microplate reader assay; type: functional, organism-based
[16] = test system: Pseudomonas aeruginosa; test: Antibacterial activity against Pseudomonas aeruginosa PAO1 assessed as inhibition of bacterial growth incubated for 18 to 20 hrs in presence of M9 and FeCl3 medium by broth microdilution assay; type: functional, organism-based
[17] = test system: Pseudomonas aeruginosa; test: Antibacterial activity against Pseudomonas aeruginosa PAO1 assessed as reduction in metabolic activity incubated for 6 hrs by resazurin reagent based microplate reader analysis; type: functional, organism-based
[18] = test system: Cell membrane; test: Disruption of cell membrane integrity in Pseudomonas aeruginosa PAO1 assessed as increase in protein leakage at 0.5 to 4 MIC incubated for 6 hrs by BCA protein assay; type: cell membranes
[19] = test system: Pseudomonas aeruginosa; test: Antibacterial activity against multi-drug resistant Pseudomonas aeruginosa clinical isolate 1129 assessed as inhibition of bacterial growth by measuring minimum inhibitory concentration incubated for 18 to 20 hrs in presence of M9 medium by broth microdilution assay; type: functional; settings: time 18-20 hrs
[20] = test system: Pseudomonas aeruginosa; test: Antibacterial activity against multi-drug resistant Pseudomonas aeruginosa clinical isolate 1121 assessed as inhibition of bacterial growth by measuring minimum inhibitory concentration incubated for 18 to 20 hrs in presence of M9 medium by broth microdilution assay; type: functional; settings: time 18-20 hrs
[21] = test system: Pseudomonas aeruginosa; test: Antibacterial activity against Pseudomonas aeruginosa PAO1 assessed as inhibition of bacterial growth by measuring minimum inhibitory concentration incubated for 18 to 20 hrs in presence of M9 and FeCl3 medium by broth microdilution assay; type: functional; settings: time 18-20 hrs
[22] = test system: Pseudomonas aeruginosa; test: Antibacterial activity against Pseudomonas aeruginosa PAO1 assessed as inhibition of bacterial growth incubated for 18 to 20 hrs in presence of M9 medium by broth microdilution assay; type: functional, organism-based
[23] = test system: Vero; test: Cytotoxicity against green monkey Vero cells assessed as reduction in cell viability at 128 ug/ml incubated for 24 hrs by MTT assay; type: toxicity, cell-based; settings: chlorocebus sabaeus, dose 128 µg/ml
[24] = test system: Escherichia coli; test: Antibacterial activity against Escherichia coli ATCC 25922 assessed as inhibition of bacterial growth by measuring minimum inhibitory concentration incubated for 18 to 20 hrs in presence of M9 medium by broth microdilution assay; type: functional; settings: time 18-20 hrs
[25] = test system: Cell membrane; test: Disruption of cell membrane integrity in Pseudomonas aeruginosa PAO1 assessed as increase in nucleic acid leakage at 0.5 to 4 MIC incubated for 6 hrs by microplate reader analysis; type: cell membranes
[26] = test system: Staphylococcus aureus; test: Antibacterial activity against Staphylococcus aureus ATCC 25923 assessed as inhibition of bacterial growth incubated for 18 to 20 hrs in presence of M9 medium by broth microdilution assay; type: functional, organism-based; settings: time 18-20 hrs
[27] = test system: Pseudomonas aeruginosa; test: Antibacterial activity against Pseudomonas aeruginosa PAO1 infected in Caenorhabditis elegans assessed as increase in worm survival rate at 32 ug/ml incubated for 60 hrs; type: functional, organism-based; settings: dose 32.0 µg/ml
[28] = test system: Pseudomonas aeruginosa; test: Antibacterial activity against Pseudomonas aeruginosa PAO1 assessed as inhibition of bacterial growth at 32 ug/ml incubated upto 24 hrs by time-kill based microplate reader assay; type: functional, organism-based; settings: dose 32.0 µg/ml
[29] = test system: Staphylococcus aureus; test: Bactericidal activity against Staphylococcus aureus ATCC 25923 assessed as inhibition of bacterial growth at 2 times MIC incubated upto 24 hrs by time-kill based microplate reader assay; type: functional, organism-based
[30] = test system: Vero; test: Cytotoxicity against green monkey Vero cells assessed as reduction in cell viability at 1 to 32 ug/ml incubated for 24 hrs by MTT assay; type: toxicity, cell-based; settings: chlorocebus sabaeus, dose 1-32 µg/ml

| Structure (SMILES) | MIC [3] [µg/mL] | MIC [4] [µg/mL] | MIC [5] [µg/mL] | MIC [8] [µg/mL] | MIC [9] [µg/mL] | MIC [10] [µg/mL] | IC50 [11] [µg/mL] | MIC [13] [µg/mL] | IC50 [16] [µg/mL] | MIC [19] [µg/mL] | MIC [20] [µg/mL] | MIC [21] [µg/mL] | IC50 [22] [µg/mL] | MIC [24] [µg/mL] | Activity [26] | also measured |
| --- | --- | --- | --- | --- | --- | --- | --- | --- | --- | --- | --- | --- | --- | --- | --- | --- |
| CC(C)=CCc1c(O)ccc(C(=O)/C=C/c2ccc(OCCCOCc3cc(=O)c(O)cn3C)cc2)c1O | 32 | > 128 | 16 | 8 | 32 | 16 | 16.8 | 32 | > 128 | 8 | 8 | > 128 | 1.45 | > 128 |  | Activity [1]: Toxic; Activity [2]: Dose-Dependent Effect; Survival [6]: 55%; Activity [7]: inactive; Activity [12]: Active; Activity [14]: inactive; Activity [15]: inactive; Activity [17]: Dose-Dependent Effect; Activity [18]: Active; Activity [23]: Non-Toxic; Activity [25]: Active |
| CC(C)=CCc1c(O)ccc(C(=O)/C=C/c2ccc(OCCCCCC(=O)NCc3cc(=O)c(O)cn3C)cc2)c1O | 32 | > 128 | 16 | 32 | 32 | 16 | 19.4 | 32 | > 128 | 32 | 16 | > 128 | 1.46 | > 128 |  |  |
| CC(C)=CCc1c(O)ccc(C(=O)/C=C/c2ccc(OCCCCCCOCc3c(O)c(=O)cc(C)n3C)cc2)c1O | 32 | > 128 | 32 | 16 | > 128 | 32 | 10.2 | > 128 | > 128 | 8 | 8 | > 128 | 7.87 | > 128 | inactive |  |
| CC(C)=CCc1c(O)ccc(C(=O)/C=C/c2ccc(O)cc2)c1O [ISOBAVACHALCONE] | > 128 | > 128 | > 128 | > 128 | > 128 | > 128 | > 128 | 4 | > 128 | > 128 | > 128 | > 128 | > 128 | > 128 |  | Activity [27]: inactive; Activity [28]: inactive; Activity [29]: Active; Activity [30]: Non-Toxic |
| CC(C)=CCc1c(O)ccc(C(=O)/C=C/c2ccc(OCCCCCCOCc3cc(=O)c(O)cn3C)cc2)c1O | 32 | > 128 | 16 | 8 | 16 | 16 | 7.31 | > 128 | > 128 | 8 | 8 | > 128 | 3.39 | > 128 | inactive |  |
| CC1(C)S[C@@H]2[C@H](NC(=O)[C@H](N)c3ccccc3)C(=O)N2[C@H]1C(=O)O [AMPICILLIN] | > 128 | > 128 | 32 | > 128 | 32 | > 128 | 12.6 | 0.25 | 6.06 | > 128 | > 128 | 32 | 12.7 | 8 |  |  |
